{"source": "paper PMC10435460", "about": "“Ligand recognition and G protein coupling of the human itch receptor MRGPRX1” (Nature Communications, 2023)", "key": {"[1]": {"biological_target": "T1, MRGPRX1 (Homo sapiens, UniProt Q96LB2)", "T1 construct": "we fused a BRIL tag at the N-terminus of full-length wild-type MRGPRX1; FLAG; expressed in transfected cells; host or cells: HEK293", "assay": "Ligand bias factor (β value), Gi vs Gq, BAM8-22 as reference", "type": "cell-based", "conditions": "Suppl Fig 11f-h", "procedure": "Human Embryonic Kidney 293 (HEK293) cells were obtained from the Cell Resource Center of Shanghai Institute for Biological Sciences (Chinese Academy of Sciences, Shanghai, China) and cultured in DMEM with 10% FBS for functional studies. Transient transfection in the current study was performed with Lipofectamine 2000 (Invitrogen), according to the manufacturer’s instructions. For studying the peptide-induced G-protein activation through MRGPRX1, G-protein BRET probes were generated according to previous publications[13],[30],[31]. HEK293 cells were transfected with plasmids MRGPRX1 and G-protein probes. After 24 h, cells were reseeded into a 96-well plate with a density of 30,000-50,000 cells per well and incubated for an additional 24 h at 37 °C. For peptide-stimulated activity measurement, the BRET signal between Rluc8 and GFP2 was recorded after the addition of peptide ligands (final concentration:10^−10 – 10^−3 M) and coelenterazine 400a. The BRET signal was calculated as the ratio of the GFP2 emission to the Rluc8 emission. […]\nare presented as the mean ± SEM (n=3). All data were analyzed by two-sided one-way ANOVA with Turkey test. […] Both CNF-Tx2 and Chloroquine were assessed for Gi signaling (f) and Gq signaling (g). The bias factor (β value) of CNF-Tx2 and Chloroquine was calculated using BAM8-22 as the reference.\nR3c). The β value was calculated according to formulas. […]"}, "[2]": {"system": "MRGPRX2", "assay": "Gαi-Gγ dissociation assay (BRET)", "type": "cell-based, human", "conditions": "Fig 1e", "source_text": "Fig. 1 Cryo-EM structure of MRGPRX1-Gi1/Gq complexes. a Cryo-EM density map of the BAM8-22-MRGPRX1-Gi1/Gq complexes and CNF-Tx2-MRGPRX1-Gi1 complex. b EM density maps of BAM8-22 in MRGPRX1-Gi1/Gq complexes and CNF-Tx2 in MRGPRX1-Gi1 complex. BAM8-22 in MRGPRX1-Gi1/Gq complexes, hot pink/cyan; CNF-Tx2, light pink; MRGPRX1, cornflower blue, salmon, and medium aquamarine from left to right; Gαi, dark orange; Gαq, yellow; Gβ, wheat; Gγ, light blue; scFv16 (single-chain variable fragment), gray. c Cut-away view of the ligand-binding pocket in the BAM8-22-MRGPRX1-Gi1/Gq, CNF-Tx2-MRGPRX1-Gi1, PAMP-12-MRGPRX2-Gi1 and KCA-CB1-Gi1 complexes. d The binding modes of the peptide agonists of MRGPRX1 compared with MRGPRX2. e The selectivity of different ligands for MRGPRX1 and MRGPRX2 was evaluated using Gαi-Gγ dissociation assay. Data are mean ± SEM of three independent experiments (n = 3). ΔBRET indicates the difference between the BRET signal recorded from cells treated with ligand and that from cells treated with vehicle.\nHuman Embryonic Kidney 293 (HEK293) cells were obtained from the Cell Resource Center of Shanghai Institute for Biological Sciences (Chinese Academy of Sciences, Shanghai, China) and cultured in DMEM with 10% FBS for functional studies. […] The BRET signal was calculated as the ratio of the GFP2 emission to the Rluc8 emission."}, "[3]": {"biological_target": "T1, MRGPRX1", "type": "cell-based", "set-up": "Emax: unit not given here", "conditions": "for Δpec50: Fig 3d, CNF-Tx2 mutant peptide vs CNF-Tx2 WT; for Emax: Suppl Fig 9a, CNF-Tx2 WT and mutant peptides", "procedure": "Human Embryonic Kidney 293 (HEK293) cells were obtained from the Cell Resource Center of Shanghai Institute for Biological Sciences (Chinese Academy of Sciences, Shanghai, China) and cultured in DMEM with 10% FBS for functional studies. Transient transfection in the current study was performed with Lipofectamine 2000 (Invitrogen), according to the manufacturer’s instructions. For studying the peptide-induced G-protein activation through MRGPRX1, G-protein BRET probes were generated according to previous publications[13],[30],[31]. HEK293 cells were transfected with plasmids MRGPRX1 and G-protein probes. After 24 h, cells were reseeded into a 96-well plate with a density of 30,000-50,000 cells per well and incubated for an additional 24 h at 37 °C. For peptide-stimulated activity measurement, the BRET signal between Rluc8 and GFP2 was recorded after the addition of peptide ligands (final concentration:10^−10 – 10^−3 M) and coelenterazine 400a. The BRET signal was calculated as the ratio of the GFP2 emission to the Rluc8 emission."}}, "note": "Like-named read-outs stand apart in the source and are kept apart here. Ends that are not written are not given here.", "data": [{"molecule": "CCN(CC)CCCC(C)Nc1ccnc2cc(Cl)ccc12", "note": "(stereo not shown) [Chloroquine, chloroquine]", "values": [{"measurement": "bias property, Gi vs Gq", "setting": "[1]", "value": "Gq bias ligand"}]}, {"molecule": "bovine adrenal medulla peptide (BAM) 8-22 [BAM8-22]", "values": [{"measurement": "recognition by MRGPRX2", "setting": "[2]", "value": "cannot be recognized by MRGPRX2"}]}, {"molecule": "HSGILLAWSGPRNRAVRI-NH2 (C-terminus assumed) [F15A]", "values": [{"measurement": "Δpec50", "setting": "[3]; replicate 2", "value": -6.871}, {"measurement": "Δpec50", "setting": "[3]; replicate 3", "value": -1.837}, {"measurement": "Emax", "setting": "[3]; replicate 1", "value": -0.06154}, {"measurement": "Emax", "setting": "[3]; replicate 3", "value": -0.06172}]}, {"molecule": "Hemoglobin b-chain(34-42): hemoglobin β-chain fragment, peptide ligand of MRGPRX1 (VVYPWTQRF; UniProt P68871 34-42, looked up, fragment) [reference compound]", "values": [{"measurement": "potency and efficacy at MRGPRX1", "setting": "[3]; Suppl Fig 11c", "value": "reasonable potency and efficacy"}]}, {"molecule": "HSGILLAWSGPRNRF-NH2 (C-terminus assumed) [ΔVRI]", "values": [{"measurement": "Δpec50", "setting": "[3]; replicate 2", "value": -0.3933}, {"measurement": "Δpec50", "setting": "[3]; replicate 3", "value": -0.1993}, {"measurement": "Emax", "setting": "[3]; replicate 1", "value": 5.805}, {"measurement": "Emax", "setting": "[3]; replicate 2", "value": 0.1588}, {"measurement": "Emax", "setting": "[3]; replicate 3", "value": -0.003279}, {"measurement": "effect of C-terminal truncation on MRGPRX1 activity", "setting": "[3]; compared to CNF-Tx2 wide-type peptide, Fig R4", "value": "almost abolished the activity of MRGPRX1"}]}]}
